From publication PMC12655637, “Design, Synthesis, and Mechanistic Study of Novel Ciprofloxacin/Thiazole Chalcone Hybrids as Potential Anticancer Agents” (Pharmaceuticals, 2025)
pIC50: −log10 of the molar value. Read-outs that look alike come from different tables or passages of the source.

What was measured:
MCF7 = test: NCI-60 screening, one-dose (10 µM) and five-dose, SRB; assay type: cell-based, human; conditions: Homo sapiens, MCF7, 10 μM; MCF7, Breast Cancer; read-out: Growth percentage
NCI/ADR-RES = test: as above; assay type: cell-based, human; conditions: Homo sapiens, 10 μM, Ovarian Cancer, read-out: Growth percentage
SNB-75 = test: as above; assay type: cell-based, human; conditions: Homo sapiens; 10 μM; SNB-75, CNS Cancer; read-out: Growth percentage
A549/ATCC = test: as above; assay type: cell-based, human; conditions: Homo sapiens, 10 μM, Non-Small-Cell Lung Cancer, read-out: Growth percentage
IGROV1 = test: as above; assay type: cell-based, human; conditions: 10 μM; IGROV1, Ovarian Cancer
MALME-3M = test: as above; assay type: cell-based, human; conditions: 10 μM, Melanoma
UACC-257 = test: as above; assay type: cell-based, human; conditions: Homo sapiens; 10 μM; UACC-257, Melanoma; read-out: Growth percentage
NCI-H322M = test: as above; assay type: cell-based, human; conditions: 10 μM, Non-Small-Cell Lung Cancer
HOP-92 = test: as above; assay type: cell-based, human; conditions: Homo sapiens; 10 μM; HOP-92, Non-Small-Cell Lung Cancer; read-out: Growth percentage
RPMI-8226 = test: as above; assay type: cell-based, human; conditions: Homo sapiens; for activity at 10 µM: RPMI-8226, 10 μM, RPMI-8226, Leukemia, read-out: Growth percentage
UACC-62 = test: as above; assay type: cell-based; conditions: Homo sapiens
RXF 393 = test: as above; assay type: cell-based; conditions: Homo sapiens; 10 μM; RXF 393, Renal Cancer; read-out: Growth percentage
K-562 = test: as above; assay type: cell-based, human; conditions: Homo sapiens, K562, 10 μM; K-562, Leukemia; read-out: Growth percentage
NCI-H226 = test: as above; assay type: cell-based, human; conditions: Homo sapiens; 10 μM; NCI-H226, Non-Small-Cell Lung Cancer; read-out: Growth percentage
OVCAR-8 = test: as above; assay type: cell-based, human; conditions: Homo sapiens; 10 μM; OVCAR-8, Ovarian Cancer; read-out: Growth percentage
HCT-15 = test: as above; assay type: cell-based, human; conditions: Homo sapiens; 10 μM; HCT-15, Colon Cancer; read-out: Growth percentage
CCRF-CEM = test: as above; assay type: cell-based, human; conditions: Homo sapiens, 10 μM, Leukemia, read-out: Growth percentage
786−0 = test: as above; assay type: cell-based, human; conditions: Homo sapiens; 10 μM; 786−0, Renal Cancer; read-out: Growth percentage
SF-539 = test: as above; assay type: cell-based, human; conditions: Homo sapiens, SF-539, 10 μM; SF-539, CNS Cancer; read-out: Growth percentage
SK-MEL-28 = test: as above; assay type: cell-based, human; conditions: Homo sapiens; 10 μM; SK-MEL-28, Melanoma; read-out: Growth percentage
U251 = test: as above; assay type: cell-based, human; conditions: Homo sapiens, U-251; 10 μM; U251, CNS Cancer; read-out: Growth percentage
[1] = system: 60 human cancer cell lines; test: NCI-60 screening, full panel (mean growth, MID a, ranges over all lines); conditions: Homo sapiens, read-out: Mean growth percentage
MOLT-4 = test: NCI-60 screening, one-dose (10 µM) and five-dose, SRB; assay type: cell-based, human; conditions: Homo sapiens; 10 μM; MOLT-4, Leukemia; read-out: Growth percentage
COLO 205 = test: as above; assay type: cell-based, human; conditions: Homo sapiens; 10 μM; COLO 205, Colon Cancer; read-out: Growth percentage
SF-268 = test: as above; assay type: cell-based, human; conditions: Homo sapiens; 10 μM; SF-268, CNS Cancer; read-out: Growth percentage
OVCAR-4 = test: as above; assay type: cell-based, human; conditions: Homo sapiens; 10 μM; OVCAR-4, Ovarian Cancer; read-out: Growth percentage
SF-295 = test: as above; assay type: cell-based, human; conditions: Homo sapiens; 10 μM; SF-295, CNS Cancer; read-out: Growth percentage
SK-MEL-2 = test: as above; assay type: cell-based, human; conditions: Homo sapiens; 10 μM; SK-MEL-2, Melanoma; read-out: Growth percentage
HCT-116 = test: as above; assay type: cell-based, human; conditions: Homo sapiens; for activity at 10 µM: HCT-116, 10 μM, HCT-116, Colon Cancer, read-out: Growth percentage
[2] = 10 μM, UACC-62, Melanoma, read-out: Growth percentage

SMILES	activity at 10 µM (NCI/ADR-RES) [%]	activity at 10 µM (SNB-75) [%]	activity at 10 µM (A549/ATCC) [%]	activity at 10 µM (UACC-257) [%]	activity at 10 µM (HOP-92) [%]	activity at 10 µM (RXF 393) [%]	activity at 10 µM (K-562) [%]	activity at 10 µM (NCI-H226) [%]	activity at 10 µM (OVCAR-8) [%]	activity at 10 µM (HCT-15) [%]	activity at 10 µM (CCRF-CEM) [%]	activity at 10 µM (786−0) [%]	activity at 10 µM (SK-MEL-28) [%]	activity at 10 µM (U251) [%]	activity at 10 µM [1] [%]	activity at 10 µM (MOLT-4) [%]	activity at 10 µM (COLO 205) [%]	activity at 10 µM (SF-268) [%]	activity at 10 µM (OVCAR-4) [%]	activity at 10 µM (SF-295) [%]	other results
CC(=O)c1sc(SCC(=O)N2CCN(c3cc4c(cc3F)c(=O)c(C(=O)O)cn4C3CC3)CC2)nc1C [Compound 4a, 7-(4-(2-((5-Acetyl-4-methylthiazol-2-yl)thio)acetyl)piperazin-1-yl)-1-cyclopropyl-6-fluoro-4-oxo-1,4-dihydroquinoline-3-carboxylic Acid]	108	79.2	104	102	105	91.7	123	117	105	102	96.2	96.2	96.7	114	102	102	118	103	95.1	94.2	activity at 10 µM (MCF7): 94.2%; Growth percentage (IGROV1): 115.9%; Growth percentage (MALME-3M): 104.9%; Growth percentage (NCI-H322M): 105.5%; activity at 10 µM (RPMI-8226): 133%; activity at 10 µM (UACC-62; [2]): 104%; activity at 10 µM (SF-539): 86.4%; activity at 10 µM (SK-MEL-2): 97.4%; activity at 10 µM (HCT-116): 113%
Cc1nc(SCC(=O)N2CCN(c3cc4c(cc3F)c(=O)c(C(=O)O)cn4C3CC3)CC2)sc1C(=O)/C=C/c1cccc([N+](=O)[O-])c1 [Compound 4g, (E)-1-Cyclopropyl-6-fluoro-7-(4-(2-((4-methyl-5-(3-(3-nitrophenyl)acryloyl)thiazol-2-yl)thio)acetyl)piperazin-1-yl)-4-oxo-1,4-dihydroquinoline-3-carboxylic Acid]	102	95.7	90.3	99.8	68.4	92.9	29.3	102	69.2	71.7	74.5	71.2	80.8	50.7	80	86.4	90.5	172	103	110	activity at 10 µM (MCF7): 11.6%; activity at 10 µM (RPMI-8226): 9.9%; activity at 10 µM (UACC-62; UACC-62, read-out: Growth percentage): 71.9%; activity at 10 µM (SF-539): 64.5%; activity at 10 µM (SK-MEL-2): 68.9%; activity at 10 µM (HCT-116): -73.5%
COc1cccc(/C=C/C(=O)c2sc(SCC(=O)N3CCN(c4cc5c(cc4F)c(=O)c(C(=O)O)cn5C4CC4)CC3)nc2C)c1OC [Compound 4k, (E)-1-Cyclopropyl-7-(4-(2-((5-(3-(2,3-dimethoxyphenyl)acryloyl)-4-methylthiazol-2-yl)thio)acetyl)piperazin-1-yl)-6-fluoro-4-oxo-1,4-dihydroquinoline-3-carboxylic Acid]	112	100	106	102	122	86.3	133	102	87.6	64.5	72	96.9	100	103	77.9	80.4	126	109	118	97.4	Growth percentage (IGROV1): 101.3%; Growth percentage (MALME-3M): 115.2%; Growth percentage (NCI-H322M): 114.8%; pIC50 (RPMI-8226; RPMI-8226, RPMI-8226): 6.47; activity at 10 µM (UACC-62; [2]): 102%; activity at 10 µM (SK-MEL-2): 93.4%; pIC50 (HCT-116; colon HCT-116): 6.47
